# Measured values from paper PMC6175062, “Gaining Mechanistic Insight Into Coproporphyrin I as Endogenous Biomarker for OATP1B‐Mediated Drug–Drug Interactions Using Population Pharmacokinetic Modeling and Simulation” (Clinical Pharmacology and Therapeutics, 2018).
# Like-named read-outs stand apart in the source and are kept apart here.
# Columns and labels:
# [1] = Population PK model of rifampicin plasma data, healthy subjects; type: in vivo, human; conditions: single 600-mg oral dose
# Protocol: Individual plasma and urine data were obtained from a previous study in 12 healthy male subjects.6 The study was split into three occasions (OCC1–3) with a 7‐day washout period between OCC1 and 2 and OCC2 and 3. During each occasion, baseline CPI urine and plasma samples were collected (Figure S2). A single 600‐mg oral dose of RIF and a single 5‐mg oral dose of RSV were administered to the volunteers in OCC1 and OCC2, respectively. Finally, in OCC3 the same respective doses of RIF and RSV were coadministered to healthy volunteers. Plasma (RIF, RSV, and CPI) were collected at predefined timepoints over the 24‐h period following administration of RIF and/or RSV. Urine samples were collected over one time interval (−7 to 0 h) for the pretreatment sample (CPI monitored) and two subsequent intervals (0–7 h and 7–24 h) for posttreatment samples of CPI and RSV. The total number of plasma samples for modeling purposes were 276 (OCC1 = 144, OCC3 = 132), 420 (OCC1 = 144, OCC2 = 144, OCC3 = 132), and 264 (OCC2 = 132, OCC3 = 132) for RIF, CPI, and RSV, respectively, whereas the total number of urine samples were 102 (pretreatment = 34, posttreatment = 68) and 44 for CPI and RSV, respectively. No subjects enrolled in the clinical study had OATP1B1*5 or OATP1B1*15 mutations, associated with altered OATP1B1 activity.
# Population PK models were developed sequentially for analysis of RIF, CPI, and RSV plasma and urine data using nonlinear mixed‐effects modeling software, NONMEM, with first‐order conditional estimation method.32 Statistical analysis, GOF plots, and other graphical analysis were conducted in MATLAB. The structural models for RIF and RSV (Supplementary Material) were selected based on population PK models available in the literature.34, 35 An exponential model was used to describe interindividual variability random‐effects parameters and IOV was evaluated for the model parameters; occasions were defined as periods of different visits following recruitment or washout periods. Covariates and random‐effects parameters (IIV and IOV) were retained in the models when there was a significant change in objective function and improvement in GOF plots. The incorporation of IIV and IOV in the models is shown in Equation 2: (2) θik=θ⋅e^ηi+κik where θ ik is the parameter for i^th individual on k^th occasion, θ is the population (typical individual) parameter, η i is the parameter that describes the deviation of the i^th individual parameter from the population (IIV), and k ik the parameter that describes the deviation of the i^th individual from the population in addition to η ik at the k^th occasion (IOV). Both random effect parameters (η ik and k ik) are assumed to be randomly distributed with a mean of zero and the variances are estimated during analysis. Proportional or additive or combination of proportional and additive residual error models were investigated for the residuals.
# Based on a previously developed population PK model for RIF, a one compartment first order elimination model with transit absorption model was used to describe plasma concentrations of RIF (12). This model was parameterised using clearance (CL), volume of distribution (V), absorption rate constant (ka), mean transit time (MTT) and number of transit compartments (n). In order to account for the interaction between RIF and CPI and RIF and RSV, sequential analysis of plasma and urine data was conducted. […]
# [2] = test system: OATP; experiment: Model-based rifampicin in vivo OATP Ki using rosuvastatin as probe; set-up: species or system human; conditions: total (not corrected for fu); RSV as probe; read-out: KiRSV, total Ki estimated by the model, population estimate (SE%)
# Text: Based on the available plasma and urine data, a two compartment first order absorption and elimination model was used to describe the PK of RSV in the subjects. The model was parameterised using [picture] , volume of distribution of central ( [picture] ) and peripheral compartments ( [picture] ), inter-compartmental clearance ( [picture] ), biliary ( [picture] ) and renal ( [picture] ) clearance parameters. Analogous to CPI, inhibition of [picture] by RIF was incorporated in the rate of change of RSV plasma concentration, whereas it was assumed that RIF has no effect on RSV renal elimination (Eq 2). The rate of change of RSV amount in urine over time is shown in Eq3.
# where [picture] and [picture] are RSV concentrations in central (plasma) and peripheral compartments, [picture] is the amount in depot compartment, [picture] is RSV amount in the urine and [picture] is RIF transporter inhibition constant using RSV as a probe. Change in RSV distribution parameters ( [picture] , [picture] and [picture] ) following co-administration with RIF was also investigated as a binary covariate where two sets of parameters were estimated under the two experimental conditions; RSV alone and RSV under treatment (presence of RIF).
# [3] = test system: OATP1B; experiment: Rifampicin inhibition of CPI uptake in plated human hepatocytes; type: cell-based; conditions: human, plated cryopreserved human hepatocytes, probe CPI (coproporphyrin I) 0.30 µM, CPI 0.30 µM
# Protocol: The in vitro IC50 for rifampicin was assessed using CPI and RSV as OATP probe substrates in plated human hepatocytes. Cryopreserved human hepatocytes (Donor QQE, BioreclamationIVT, Baltimore, MD) were thawed and plated at a density of 350,000 cells (1). After culturing for 4h, hepatocytes were washed twice with Dulbecco's phosphate-buffered saline and pre-incubated for an hour with either buffer or rifampicin (0.01-100µM). Following pre-incubation, the medium was replaced with CPI (0.30µM) or RSV (2µM) containing rifampicin (0-100µM). Incubations were stopped after 3 or 5 minutes (for RSV and CPI,respectively) using the washing protocol described previously (2). Monolayers were lysed with water and frozen overnight and then prepared for protein quantification (BCA assay) and LC-MS/MS analysis.
# Lysate concentrations were used to demine uptake rates over a series of free RIF concentrations measured in the medium and plotted as a % of the control to estimate RIF IC50 (Main article Figure 5A and Figure S1). RIF IC50 was determined using equation 1, where U denotes the uptake rate (% vs control) at the free inhibitor concentration in the incubation [I] (µM); R, the range of inhibition; B, the un-inhibitable background (%), and S, the slope factor (GraFit v6).
# [4] = test system: OATP1B1; experiment: Literature rifampicin in vitro Ki/IC50 in transfected OATP1B1 cells; type: cell-based
# Text: In addition, literature reported in vitro RIF inhibition data in OATP1B1-transfected cell lines using either CPI or other OATP1B1 probes (Table S5) were collated to understand further any potential differences between in vitro and in vivo estimated RIF inhibition parameters.
# [5] = test system: MRP2; set-up: method as in PMID 28325716; conditions: read-out: IC50, inhibition of MRP2 transport of CPI; cited from earlier work
# [6] = set-up: method as in PMID 25813937; conditions: in humans; cited from earlier work
compound,measurement,setting,value
CO[C@H]1/C=C/O[C@@]2(C)Oc3c(C)c(O)c4c(O)c(c(/C=N/N5CCN(C)CC5)c(O)c4c3C2=O)NC(=O)/C(C)=C\C=C\[C@H](C)[C@H](O)[C@@H](C)[C@@H](O)[C@@H](C)[C@H](OC(C)=O)[C@@H]1C [rifampicin],"CL, population estimate",[1],3.97 L/h
same,"MTT (mean transit time), population estimate",[1],0.74 h
same,"V, population estimate",[1],24.7 L
same,"n (number of transit compartments), population estimate",[1],8.63
same,"ka, population estimate",[1]; 12 healthy males,2.09 h⁻¹
same,Ki,[2],2230 nM
same,IC50 at 5 min,"[3]; 60 min pre-incubation with buffer, read-out: IC50, CPI uptake, pre-incubation with buffer",730 nM
same,IC50 at 5 min,"[3]; 60 min pre-incubation with inhibitor, donor QQE, read-out: IC50, CPI uptake, pre-incubation with RIF",300 nM
same,range in literature RIF IC50 (Table S5),[4],30 fold
same,difference between in vivo Ki and literature in vitro data in OATP1B1-transfected cells,[4]; depending on in vitro probe,up to 50 fold
same,IC50,[5],83000 nM
same,unbound liver-to-plasma concentration ratio,[6],3.3
